In the NIST ThermoML archive (doi:10.1016/j.fluid.2016.10.005):
± gives the expanded uncertainty stated by the source.

Columns and labels:
[1] = molar heat capacity at constant pressure; conditions: 101 kPa, Liquid, DSC
[2] = molar heat capacity at constant pressure; mn = molality of the nth substance listed, in mol/kg; conditions: 101 kPa, Liquid, DSC, m2 = 0

molar heat capacity at constant pressure ([1]; 278.15 K) [J/K/mol]	molar heat capacity at constant pressure ([1]; 283.15 K) [J/K/mol]	molar heat capacity at constant pressure ([1]; 288.15 K) [J/K/mol]	molar heat capacity at constant pressure ([1]; 293.15 K) [J/K/mol]	molar heat capacity at constant pressure ([1]; 298.15 K) [J/K/mol]	molar heat capacity at constant pressure ([1]; 308.15 K) [J/K/mol]	molar heat capacity at constant pressure ([1]; 318.15 K) [J/K/mol]	molar heat capacity at constant pressure ([1]; 328.15 K) [J/K/mol]	molar heat capacity at constant pressure ([1]; 333.15 K) [J/K/mol]	molar heat capacity at constant pressure ([2]; 278.15 K) [J/K/mol]	molar heat capacity at constant pressure ([2]; 283.15 K) [J/K/mol]	molar heat capacity at constant pressure ([2]; 288.15 K) [J/K/mol]	molar heat capacity at constant pressure ([2]; 293.15 K) [J/K/mol]	molar heat capacity at constant pressure ([2]; 298.15 K) [J/K/mol]	molar heat capacity at constant pressure ([2]; 308.15 K) [J/K/mol]	molar heat capacity at constant pressure ([2]; 318.15 K) [J/K/mol]	molar heat capacity at constant pressure ([2]; 328.15 K) [J/K/mol]	molar heat capacity at constant pressure ([2]; 333.15 K) [J/K/mol]	Compound
471.7 ± 18	473.61 ± 18	475.62 ± 18	477.67 ± 19	479.72 ± 19	484.23 ± 19	489.08 ± 19	494.37 ± 19	497.05 ± 19										CCCCCOCCOCCOCCO [ethanol, 2-[2-[2-(pentyloxy)ethoxy]ethoxy]-]
75.75 ± 2.9	75.58 ± 2.9	75.47 ± 2.9	75.39 ± 2.9	75.35 ± 2.9	75.32 ± 2.9	75.34 ± 2.9	75.4 ± 2.9	75.48 ± 2.9										O [water]
									75.75 ± 2.9	75.58 ± 2.9	75.47 ± 2.9	75.39 ± 2.9	75.35 ± 2.9	75.32 ± 2.9	75.34 ± 2.9	75.4 ± 2.9	75.48 ± 2.9	O [water] + CCCCCOCCOCCOCCO
